Data published in patent publication US9453056B2, “Nucleic acid construct comprising nucleic acid derived from genome of hepatitis C virus of genotype 3a” (priority 2011, dated 2016).

How the values were obtained:
[1] = test system: S310A subgenomic replicon-replicating cells (clones); experiment: Effect of antiviral agents on replicon RNA replication in S310A subgenomic replicon-replicating cells (quantification of replicon RNA copy number); type: cell-based, hepatitis C virus of genotype 3a (S310A strain); conditions: S310A subgenomic replicon-replicating cell clones 6, 9 and 10; inhibitor for 3 days; relative to no inhibitor (100%)
Protocol: (§1) With the use of the S310A subgenomic replicon-replicating cells of the established 10 clones (Clone Nos. 1 to 10), the copy number of intracellular HCV subgenomic replicon RNA was quantified. The quantification of copy number of HCV subgenomic replicon RNA was carried out in accordance with the technique described in Takeuchi et al. (Gastroenterology, 1999, Vol. 116, pp. 636-642) and Kato et al. (Gastroenterology, 2003, Vol. 125, pp. 1808-1817).
(§2) This technique is a detection system using TaqMan probe method (PerkinElmer Inc., Applied Biosystems Inc.). Specifically, total RNA was first extracted from the S310A subgenomic replicon-replicating cells in accordance with a conventional technique. Subsequently, cDNA was synthesized from total RNA using rTth DNA polymerase, and the synthesized cDNA template was amplified via PCR using the primers: 5′-CGGGAGAGCCATAGTGG-3′ (SEQ ID NO: 24) and 5′-AGTACCACAAGGCCTTTCG-3′ (SEQ ID NO: 25). At this time, a probe having the nucleotide sequence 5′-[…]-3′ (SEQ ID NO: 26) to which a fluorescent dye, 6′-carboxy-fluorescein (FAM), had been bound at the 5′ terminus and a quencher, 6′-carboxytetramethyl-rhodamine (TAMRA), had been bound at the 3′ terminus was added. In the presence of such probe, the probe that had hybridized to the template cDNA is degraded because of 5′ exonuclease activity of the Taq polymerase during the process of amplification, the fluorescent dye is released from the probe, suppression by the quencher is released, thereby emitting fluorescence. Thus, such fluorescence was detected with ABI Prism 7700 (ParkinElmer Inc., Applied Biosystems Inc.) to quantify the copy number of HCV subgenomic replicon RNA.
The S310A subgenomic replicon-replicating cells (clones) and the JFH-1 subgenomic replicon-replicating cells were seeded on 24-well plates at a density of 5×10^4 cells/well, interferon-α (IFN-α), NS3 protease inhibitors (VX-950 (telaprevir) (Lin et al, Journal of Biological Chemistry, 2004, Vol. 279, pp. 17508-17514) and BILN-2061 (Daniel et al, Nature, 2003, Vol. 426, pp. 186-189)), and NS5B polymerase inhibitors JTK-109 (Hirashima et al, Journal of Medicinal Chemistry, 2006, Vol. 49, pp. 4721-4736) and PSI-6130 (Clark et al, Journal of Medicinal Chemistry, 2005, Vol. 48, pp. 5504-5508) were added to the wells on the following day, and the reaction was allowed to proceed for 3 days. Thereafter, the cells were recovered, total RNAs were extracted therefrom, and the copy number of HCV subgenomic replicon RNA in the cells was quantified in the same manner as in Example 4.
In each figure, the horizontal axis represents the concentration of an inhibitor added. The vertical axis represents change ratio of HCV RNA levels, which is the percentage (%) of the amount of subgenomic replicon RNA per μg of total RNA from cells when an inhibitor was added, relative to the amount of subgenomic replicon RNA per μg of total RNA from cells when no inhibitor was added (0 IU or 0 M) (defined as 100%). In the Figures, the leftmost bar (white) represents the results for the JFH-1 subgenomic replicon-replicating cells, the second bar from the left (light gray) represents the results for the S310A subgenomic replicon-replicating cell clone 6, the third bar from the left (black) represents the results for the S310A subgenomic replicon-replicating cell clone 9, and the rightmost bar (dark gray) represents the results for the S310A subgenomic replicon-replicating cell clone 10 at each inhibitor concentration.

[2] = test system: JFH-1 subgenomic replicon-replicating cells; experiment: Effect of antiviral agents on replicon RNA replication in JFH-1 subgenomic replicon-replicating cells (quantification of replicon RNA copy number); type: cell-based, hepatitis C virus of genotype 2a (JFH-1 strain); conditions: inhibitor for 3 days, relative to no inhibitor (100%)
Protocol: as §1, §2
As a control for comparison, the cells into which HCV subgenomic replicon RNA of the JFH-1 strain of genotype 2a had been introduced (the JFH-1 subgenomic replicon-replicating cells) were used. The JFH-1 strain HCV subgenomic replicon RNA expression vector (comprising the 5′ untranslated region (5′ UTR), the sequence of 57 nucleotides at the 5′ terminus of the Core protein coding region, the neomycin resistance gene, the EMCV IRES sequence, the nucleotide sequences encoding the NS3 protein, the NS4A protein, the NS4B protein, the NS5A protein and the NS5B protein, and the 3′ untranslated region (3′ UTR) of the HCV JFH-1 strain in this order from the 5′ to 3′ direction) was constructed and HCV subgenomic replicon RNA was produced in accordance with the techniques described in Kato et al. (Gastroenterology, 2003, Vol. 125, pp. 1808-1817) and International Publication No. WO 04/104198. Introduction thereof into the Huh cells and quantification of the copy number were carried out in the manner as described above. […]

[3] = test system: HCV genotype 3a; conditions: Reesink et al., Gastroenterology, 2010; cited from earlier work
[4] = test system: HCV genotypes 1 to 6 except for genotype 3a; conditions: Reesink et al., Gastroenterology, 2010; cited from earlier work
[5] = test system: HCV genotype 2a or 3a; conditions: compared with genotype 1b; Mori et al., 1992; cited from earlier work
[6] = test system: HCV genotype 1b; conditions: Mori et al., 1992; cited from earlier work

Row | Molecule | replication of the S310A subgenomic replicon RNAs (change ratio of HCV RNA levels) [1] | replication of the JFH-1 subgenomic replicon RNA (change ratio of HCV RNA levels) [2] | further results
1 | COc1ccc2c(O[C@@H]3C[C@H]4C(=O)N[C@]5(C(=O)O)C[C@H]5/C=C\CCCCC[C@H](NC(=O)OC5CCCC5)C(=O)N4C3)cc(-c3csc(NC(C)C)n3)nc2c1 [BILN-2061] | did not inhibit | exert inhibitory activity | 
2 | C[C@@]1(F)[C@H](O)[C@@H](CO)O[C@H]1n1ccc(N)nc1=O [PSI-6130] | inhibited | inhibited | 
3 | CCC[C@H](NC(=O)[C@@H]1[C@H]2CCC[C@H]2CN1C(=O)[C@@H](NC(=O)[C@@H](NC(=O)c1cnccn1)C1CCCCC1)C(C)(C)C)C(=O)C(=O)NC1CC1 [VX-950, telaprevir] | did not inhibit |  | 
4 | COc1ccc2c(O[C@@H]3C[C@H]4C(=O)N[C@]5(C(=O)NS(=O)(=O)C6CC6)C[C@H]5/C=C\CCCCN(C)C(=O)[C@@H]4C3)cc(-c3nc(C(C)C)cs3)nc2c1C [TMC435] |  |  | inhibitory effects on genotype 3a [3]: weak inhibitory effects; inhibitory effects on genotypes 1 to 6 except for genotype 3a [4]: strong inhibitory effects
5 | IFN-α | markedly inhibited | markedly inhibited | 
6 | interferon |  |  | therapeutic effect of interferon on genotype 2a or 3a [5]: higher; therapeutic effect of interferon on genotype 1b [6]: low
7 | O=C(O)c1ccc2c(c1)nc(-c1ccc(OCc3cc(N4CCCC4=O)ccc3-c3ccc(Cl)cc3)cc1F)n2C1CCCCC1 [JTK-109] | markedly inhibited | not to be inhibited | 
